Read-outs that look alike come from different tables or passages of the source. Ends that are not written are not given here.
How the values were obtained:
[1] = test system: Peripheral blood mononuclear cells (PBMCs); assay: Cytokine release assay (IL-10, IL-13, IFN-g multiplex bead assay); format: cell-based, human; conditions: proportion of subjects in which peptide induced IL-13 or IFN-g above 100 pg/ml; 47 birch allergic subjects; peptide 100 μg/ml; 5 days
Experimental: Peripheral blood mononuclear cells (PBMCs) were isolated from heparinised blood by Ficoll density gradient centrifugation. […] Following stimulation, culture supernatants (100 μl) were harvested for testing by multiplex bead assay.
Multiplex cytokine bead assays (IL-10, IL-13, Interferon gamma (IFN-g)) were performed on thawed culture supernatants according to the manufacturer's instructions. Single measurements were performed for each culture supernatant sample. After completion of the multiplex assay, individual cytokine levels were determined by interpolation from the standard curve generated in the assay.

[2] = Solubility screening in trehalose matrices pH 2.65 to 7.03; format: physicochemical; conditions: for solubility: read-out: Solubility [mg per ml];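 for all read-outs here: test items are peptides, each checked for solubility in every trehalose matrix, the matrices made up in distilled deionised water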
Experimental: The solubility of each of the nine peptides was evaluated in each of the matrices in accordance with Appendix 1.
Each matrix was prepared at a concentration of 10 mM of the buffering agent.
The procedure indicated is for the preparation of 100 mL of each buffer, but alternative volumes can be prepared by adjusting the quantities. • 0.1M stock solutions of sodium citrate and potassium dihydrogen phosphate were prepared. • Weight of trehalose dihydrate equivalent to 260 mM was transferred to an appropriate mixing vessel containing 70-80 mL of distilled deionised water and allowed to dissolve. • 10 mL of the appropriate stock 0.1M buffer solution was added to the mixing vessel and stirred. • The pH of the matrix was adjusted to the desired value by adding 2 mM hydrochloric acid or 0.1M sodium hydroxide as required. • The solutions were finally diluted to 100 g weight and the pH re-assessed.

[3] = 2 mM HCl and 260 mM trehalose dihydrate, pH 2.65
[4] = 10 mM potassium dihydrogen phosphate and 260 mM trehalose dihydrate, pH 6.03
[5] = 10 mM potassium dihydrogen phosphate and 260 mM trehalose dihydrate, pH 7.03
[6] = 10 mM sodium citrate and 260 mM trehalose dihydrate, pH 3.01
[7] = 10 mM sodium citrate and 260 mM trehalose dihydrate, pH 3.99
[8] = 10 mM sodium citrate and 260 mM trehalose dihydrate, pH 5.02
[9] = 10 mM sodium citrate and 260 mM trehalose dihydrate, pH 6.01
[10] = aqueous buffer, 10 mM potassium dihydrogen phosphate and 260 mM trehalose dihydrate, pH 6.03
[11] = aqueous buffer, 10 mM potassium dihydrogen phosphate and 260 mM trehalose dihydrate, pH 7.03
[12] = aqueous buffer, 10 mM sodium citrate and 260 mM trehalose dihydrate, pH 3.01
[13] = aqueous buffer, 10 mM sodium citrate and 260 mM trehalose dihydrate, pH 3.99
[14] = aqueous buffer, 10 mM sodium citrate and 260 mM trehalose dihydrate, pH 5.02
[15] = aqueous buffer, 10 mM sodium citrate and 260 mM trehalose dihydrate, pH 6.01
[16] = water, 2 mM HCl and 260 mM trehalose dihydrate, pH 2.65

Sequence	Comments (solubility on preparation) [2, 3]	Solubility [mg per ml 'as is'] [2, 3]	Solubility [μmol per ml] [2, 3]	Solubility after 24 Hours [2, 3]	Commute (solubility on preparation) [2, 4]	Solubility [mg per ml 'as is'] [2, 4]	Solubility [μmol per ml] [2, 4]	Solubility after 24 Hours [2, 4]	Comments (solubility on preparation) [2, 5]	Solubility [mg per ml 'as is'] [2, 5]	Solubility [μmol per ml] [2, 5]	Solubility after 24 Hours [2, 5]	Comments (solubility on preparation) [2, 6]	Solubility [mg per ml 'as is'] [2, 6]	Solubility [μmol per ml] [2, 6]	Solubility after 24 Hours [2, 6]	Solubility [mg per ml 'as is'] [2, 7]	Solubility [μmol per ml] [2, 7]	Comments (solubility on preparation) [2, 8]	Solubility [mg per ml 'as is'] [2, 8]	other results
IKYMVIQGEAGAVIRGK (GIKYMVIQGEAGAVIRGK; Betulaceae) [Bir13, Bet v2-derived peptide]	–	–	–	–	–	–	–	–	–	–	–	–	–	–	–	–	–	–	–	–	% responders [1]: 23%
SNEIKIVATPEGGSILK [Bir07C]	Completely dissolved	11.48 mg per ml ‘as is’	5.747 μmol per ml	Completely dissolved	Completely dissolved in	0.42 mg per ml ‘as is’	0.208 μmol per ml	Precipitated out,	Completely dissolved	6.70 mg per ml ‘as is’	3.354 μmol per ml	Completely dissolved	Completely dissolved	1.30 mg per ml ‘as is’	0.653 μmol per ml	Completely dissolved	0.38 mg per ml ‘as is’	0.188 μmol per ml	Completely dissolved	0.86 mg per ml ‘as is’	Solubility [μmol per ml] [2, 8]: 0.433 μmol per ml; Solubility after 24 Hours [2, 8]: Completely dissolved; Comments (solubility on preparation) [2, 9]: Completely dissolved in; Solubility [mg per ml 'as is'] [2, 9]: 0.35 mg per ml ‘as is’; Solubility [μmol per ml] [2, 9]: 0.174 μmol per ml; Solubility after 24 Hours [2, 9]: Precipitated out,; solubility [2, 10]: ≥ 365 µg/mL; solubility [2, 11]: ≥ 5890 µg/mL; solubility [2, 12]: ≥ 1150 µg/mL; solubility [2, 13]: ≥ 330 µg/mL; solubility [2, 14]: ≥ 760 µg/mL; solubility [2, 15]: ≥ 306 µg/mL; solubility [2, 16]: ≥ 10100 µg/mL
AERERIFKRFDANGEGK [Bir16A]	Completely dissolved	24.86 mg per ml ‘as is’	10.652 μmol per ml	Completely dissolved	Completely dissolved	21.54 mg per ml ‘as is’	9.229 μmol per ml	Completely dissolved	Completely dissolved	21.98 mg per ml ‘as is’	9.418 μmol per ml	Completely dissolved	Completely dissolved	7.17 mg per ml ‘as is’	3.074 μmol per ml	Completely dissolved	7.49 mg per ml ‘as is’	3.208 μmol per ml	Completely dissolved	23.16 mg per ml ‘as is’	Comments (solubility on preparation) [2, 7]: Completely dissolved; Solubility after 24 Hours [2, 7]: Completely dissolved; Solubility [μmol per ml] [2, 8]: 9.923 μmol per ml; Solubility after 24 Hours [2, 8]: Completely dissolved; Comments (solubility on preparation) [2, 9]: Completely dissolved; Solubility [mg per ml 'as is'] [2, 9]: 25.86 mg per ml ‘as is’; Solubility [μmol per ml] [2, 9]: 11.080 μmol per ml; Solubility after 24 Hours [2, 9]: Completely dissolved; solubility [2, 10]: ≥ 18700 µg/mL; solubility [2, 11]: ≥ 19100 µg/mL; solubility [2, 12]: ≥ 6220 µg/mL; solubility [2, 13]: ≥ 6490 µg/mL; solubility [2, 14]: ≥ 20100 µg/mL; solubility [2, 15]: ≥ 22400 µg/mL; solubility [2, 16]: ≥ 21600 µg/mL
FNYETETTSVIPAARK [BIR1I]	Completely dissolved	19.50 mg per ml ‘as is’	9.222 μmol per ml	Completely dissolved	Completely dissolved	22.14 mg per ml ‘as is’	10.470 μmol per ml	Completely dissolved	Completely dissolved	20.78 mg per ml ‘as is’	9.827 μmol per ml	Completely dissolved	Completely dissolved	1.65 mg per ml ‘as is’	0.779 μmol per ml	Completely dissolved	2.28 mg per ml ‘as is’	1.078 μmol per ml	Completely dissolved	2.30 mg per ml ‘as is’	Comments (solubility on preparation) [2, 7]: Completely dissolved; Solubility after 24 Hours [2, 7]: Completely dissolved; Solubility [μmol per ml] [2, 8]: 1.089 μmol per ml; Solubility after 24 Hours [2, 8]: Completely dissolved; Comments (solubility on preparation) [2, 9]: Completely dissolved; Solubility [mg per ml 'as is'] [2, 9]: 7.45 mg per ml ‘as is’; Solubility [μmol per ml] [2, 9]: 3.522 μmol per ml; Solubility after 24 Hours [2, 9]: Completely dissolved; solubility [2, 10]: ≥ 19100 µg/mL; solubility [2, 11]: ≥ 18000 µg/mL; solubility [2, 12]: ≥ 1420 µg/mL; solubility [2, 13]: ≥ 1970 µg/mL; solubility [2, 14]: ≥ 1990 µg/mL; solubility [2, 15]: ≥ 6430 µg/mL; solubility [2, 16]: ≥ 16800 µg/mL

From patent publication US9017689B2, “Peptides for vaccine against birch allergy” (Circassia Limited, priority 2010, dated 2015)
